Test: Water solubility and temperature responsibility in aqueous solvent (visual / turbidity)
Description: However, the depsipeptide unit is not considered to be a material which exerts temperature responsibility in an aqueous solvent containing no organic solvent. […] Accordingly, the depsipeptide unit -Gly-X2-Cly-Hmb-Pro-(X2=any α-amino acid residue) is thought to be unsuitable as a temperature responsive material and thus has not been investigated intensively.

Poly[(Gly^1-Val^2-Gly^3-Hmb^4-Ala^5-Pro^6)-co-(Gly^7-Lys(Z)^8-Gly^9-Val^10-Ala^11-Pro^12)]
temperature responsibility in aqueous solvent: temperature responsibility thereof was confirmed
